Measurements as given in ChEMBL document CHEMBL4308865, “Discovery of 4-alkoxy-6-methylpicolinamide negative allosteric modulators of metabotropic glutamate receptor subtype 5” (Bioorg Med Chem Lett, 2019).

Experiments:
[1] = biological target: T1, Metabotropic glutamate receptor 5 (Homo sapiens, UniProt P41594); assay: Negative allosteric modulation of human mGlu5 receptor assessed as inhibition of glutamate induced-calcium mobilization relative to glutamate; type: functional
Target sequence in this assay (P41594 21-1212 limits assumed): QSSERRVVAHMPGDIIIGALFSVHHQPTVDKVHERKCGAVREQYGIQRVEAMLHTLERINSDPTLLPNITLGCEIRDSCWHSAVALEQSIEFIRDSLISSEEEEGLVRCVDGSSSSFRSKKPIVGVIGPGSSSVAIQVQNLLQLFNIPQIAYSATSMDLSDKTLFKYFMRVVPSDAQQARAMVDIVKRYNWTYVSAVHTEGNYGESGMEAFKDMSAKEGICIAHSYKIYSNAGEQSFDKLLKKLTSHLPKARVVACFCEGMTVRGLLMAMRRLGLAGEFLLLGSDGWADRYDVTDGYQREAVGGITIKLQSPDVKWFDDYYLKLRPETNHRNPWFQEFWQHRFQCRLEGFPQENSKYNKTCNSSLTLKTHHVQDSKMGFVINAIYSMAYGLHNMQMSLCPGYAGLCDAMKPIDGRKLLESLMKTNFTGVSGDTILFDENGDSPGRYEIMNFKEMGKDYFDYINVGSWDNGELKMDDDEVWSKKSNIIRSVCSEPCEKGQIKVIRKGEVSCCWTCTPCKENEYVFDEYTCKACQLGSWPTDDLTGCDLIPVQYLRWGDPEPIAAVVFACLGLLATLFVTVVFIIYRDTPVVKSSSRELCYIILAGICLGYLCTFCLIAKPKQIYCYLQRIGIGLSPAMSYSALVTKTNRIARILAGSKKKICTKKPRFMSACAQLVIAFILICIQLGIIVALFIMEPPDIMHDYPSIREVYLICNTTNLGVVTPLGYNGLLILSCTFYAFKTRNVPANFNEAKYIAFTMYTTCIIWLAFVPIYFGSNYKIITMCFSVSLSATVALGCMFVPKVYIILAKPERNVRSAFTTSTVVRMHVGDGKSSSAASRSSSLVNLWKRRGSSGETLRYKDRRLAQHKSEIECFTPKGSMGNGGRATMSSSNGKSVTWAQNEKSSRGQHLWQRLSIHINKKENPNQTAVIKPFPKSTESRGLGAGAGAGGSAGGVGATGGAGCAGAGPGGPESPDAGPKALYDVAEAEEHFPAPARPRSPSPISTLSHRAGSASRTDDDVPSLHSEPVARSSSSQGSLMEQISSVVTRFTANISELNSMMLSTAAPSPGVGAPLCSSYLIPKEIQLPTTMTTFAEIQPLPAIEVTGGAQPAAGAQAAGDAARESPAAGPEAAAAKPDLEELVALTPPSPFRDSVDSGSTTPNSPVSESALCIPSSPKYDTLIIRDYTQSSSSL

[2] = biological target: T1, Metabotropic glutamate receptor 5; assay: Negative allosteric modulation of human mGlu5 receptor assessed as inhibition of glutamate induced-calcium mobilization; type: functional
Target sequence in this assay (P41594 whole entry): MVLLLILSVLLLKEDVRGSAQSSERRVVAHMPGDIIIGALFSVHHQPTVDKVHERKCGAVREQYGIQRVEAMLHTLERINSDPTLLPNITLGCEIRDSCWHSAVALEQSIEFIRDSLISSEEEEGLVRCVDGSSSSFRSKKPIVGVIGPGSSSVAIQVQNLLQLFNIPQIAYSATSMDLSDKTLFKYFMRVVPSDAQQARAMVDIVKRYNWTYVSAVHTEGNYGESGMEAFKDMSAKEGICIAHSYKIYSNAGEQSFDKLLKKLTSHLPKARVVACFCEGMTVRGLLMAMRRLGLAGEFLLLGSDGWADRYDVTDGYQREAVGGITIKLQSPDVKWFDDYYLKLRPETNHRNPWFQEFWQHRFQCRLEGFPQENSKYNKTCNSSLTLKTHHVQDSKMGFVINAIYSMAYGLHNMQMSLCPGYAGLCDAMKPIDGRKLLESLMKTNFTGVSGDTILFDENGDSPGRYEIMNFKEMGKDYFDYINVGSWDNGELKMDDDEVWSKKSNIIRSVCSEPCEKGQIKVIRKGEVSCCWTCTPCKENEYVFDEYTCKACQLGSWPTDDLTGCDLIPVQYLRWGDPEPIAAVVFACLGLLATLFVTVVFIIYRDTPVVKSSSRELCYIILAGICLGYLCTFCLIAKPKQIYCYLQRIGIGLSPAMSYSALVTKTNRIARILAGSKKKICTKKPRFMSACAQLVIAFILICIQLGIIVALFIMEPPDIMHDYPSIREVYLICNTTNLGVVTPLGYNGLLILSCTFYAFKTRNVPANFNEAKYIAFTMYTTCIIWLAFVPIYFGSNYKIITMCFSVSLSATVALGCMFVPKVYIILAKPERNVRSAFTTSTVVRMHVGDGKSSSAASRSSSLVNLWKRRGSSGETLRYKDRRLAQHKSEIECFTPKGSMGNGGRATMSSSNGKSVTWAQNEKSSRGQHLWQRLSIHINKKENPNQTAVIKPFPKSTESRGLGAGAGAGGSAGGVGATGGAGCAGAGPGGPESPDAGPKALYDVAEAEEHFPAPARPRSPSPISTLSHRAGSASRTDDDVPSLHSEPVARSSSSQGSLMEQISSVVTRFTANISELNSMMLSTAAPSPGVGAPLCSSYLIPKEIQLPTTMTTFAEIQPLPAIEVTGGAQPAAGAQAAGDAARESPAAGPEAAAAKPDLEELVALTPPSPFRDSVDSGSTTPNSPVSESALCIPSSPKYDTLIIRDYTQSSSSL

[3] = Unbound fraction in human plasma; type: ADME, cell-free
Cytochrome P450 1A2 = biological target: T2, Cytochrome P450 1A2 (Homo sapiens, UniProt P05177); assay: Inhibition of CYP1A2 (unknown origin); type: ADME
T2 sequence (P05177 whole entry): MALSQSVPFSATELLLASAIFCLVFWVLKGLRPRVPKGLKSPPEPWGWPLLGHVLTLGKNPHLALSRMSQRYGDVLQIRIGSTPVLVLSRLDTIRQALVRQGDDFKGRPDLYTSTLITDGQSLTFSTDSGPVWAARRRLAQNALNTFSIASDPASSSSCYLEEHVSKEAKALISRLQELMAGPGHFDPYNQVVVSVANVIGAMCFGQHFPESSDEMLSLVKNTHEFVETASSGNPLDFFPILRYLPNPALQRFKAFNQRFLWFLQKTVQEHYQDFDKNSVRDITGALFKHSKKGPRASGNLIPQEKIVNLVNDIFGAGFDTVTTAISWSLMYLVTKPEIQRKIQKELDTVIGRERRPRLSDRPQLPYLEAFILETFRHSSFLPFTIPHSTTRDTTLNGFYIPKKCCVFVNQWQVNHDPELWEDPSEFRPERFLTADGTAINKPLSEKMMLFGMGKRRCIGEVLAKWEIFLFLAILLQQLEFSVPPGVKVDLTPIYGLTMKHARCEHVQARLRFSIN

Cytochrome P450 3A4 = Cytochrome P450 3A4 (Homo sapiens, UniProt P08684); assay: Inhibition of CYP3A4 (unknown origin); type: ADME
Cytochrome P450 2C9 = Cytochrome P450 2C9 (Homo sapiens, UniProt P11712); assay: Inhibition of CYP2C9 (unknown origin); type: ADME
[4] = Volume of distribution at steady state in rat at 0.2 mg/kg, iv; type: ADME, organism-based; settings: in vivo, read-out: Vdss
[5] = Half life in rat at 0.2 mg/kg, iv; type: ADME, organism-based; settings: in vivo
[6] = Unbound fraction in rat plasma; type: ADME, cell-free
Cytochrome P450 2D6 = Cytochrome P450 2D6 (Homo sapiens, UniProt P10635); assay: Inhibition of CYP2D6 (unknown origin); type: ADME
[7] = Plasma clearance in rat at 0.2 mg/kg, iv; type: ADME, organism-based
[8] = Drug metabolism in rat S9 fraction assessed as NADPH-dependent oxidation of furanyl moiety; type: ADME, subcellular
[9] = Drug metabolism in human S9 fraction assessed as NADPH-dependent oxidation of furanyl moiety; type: ADME, subcellular
[10] = Drug metabolism in dog S9 fraction assessed as NADPH-dependent oxidation of furanyl moiety; type: ADME, subcellular, Canis lupus familiaris
[11] = Brain to plasma partition coefficient, Kp in rat; type: ADME, organism-based

Cytochrome P450 3A4, sequence (P08684 whole entry): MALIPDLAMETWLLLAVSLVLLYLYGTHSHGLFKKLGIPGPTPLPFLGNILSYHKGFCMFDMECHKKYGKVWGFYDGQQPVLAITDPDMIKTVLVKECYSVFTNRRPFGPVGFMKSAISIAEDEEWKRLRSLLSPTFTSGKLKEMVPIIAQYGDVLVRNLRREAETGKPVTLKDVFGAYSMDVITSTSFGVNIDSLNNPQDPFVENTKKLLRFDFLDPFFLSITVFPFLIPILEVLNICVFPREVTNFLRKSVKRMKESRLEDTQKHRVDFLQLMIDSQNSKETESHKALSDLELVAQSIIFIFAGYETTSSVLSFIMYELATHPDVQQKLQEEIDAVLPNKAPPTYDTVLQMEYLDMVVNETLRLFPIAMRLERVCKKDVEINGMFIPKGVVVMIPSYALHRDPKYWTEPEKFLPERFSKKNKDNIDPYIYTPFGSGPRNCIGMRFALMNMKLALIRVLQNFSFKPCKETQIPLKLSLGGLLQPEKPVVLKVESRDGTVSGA
Cytochrome P450 2C9, sequence (P11712 whole entry): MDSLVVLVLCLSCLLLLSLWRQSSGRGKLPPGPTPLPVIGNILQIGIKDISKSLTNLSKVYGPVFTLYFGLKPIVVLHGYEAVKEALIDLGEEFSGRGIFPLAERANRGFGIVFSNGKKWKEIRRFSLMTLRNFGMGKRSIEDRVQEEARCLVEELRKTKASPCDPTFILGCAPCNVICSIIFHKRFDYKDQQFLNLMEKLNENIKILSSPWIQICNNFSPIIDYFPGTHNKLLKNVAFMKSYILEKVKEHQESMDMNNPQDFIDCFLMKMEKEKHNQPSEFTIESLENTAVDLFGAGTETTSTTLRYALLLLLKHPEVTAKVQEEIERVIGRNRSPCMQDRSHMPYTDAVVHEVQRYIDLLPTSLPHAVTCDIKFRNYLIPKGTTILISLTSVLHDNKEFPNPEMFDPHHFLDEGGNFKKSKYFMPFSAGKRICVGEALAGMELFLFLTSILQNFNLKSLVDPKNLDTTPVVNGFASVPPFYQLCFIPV
Cytochrome P450 2D6, sequence (P10635 whole entry): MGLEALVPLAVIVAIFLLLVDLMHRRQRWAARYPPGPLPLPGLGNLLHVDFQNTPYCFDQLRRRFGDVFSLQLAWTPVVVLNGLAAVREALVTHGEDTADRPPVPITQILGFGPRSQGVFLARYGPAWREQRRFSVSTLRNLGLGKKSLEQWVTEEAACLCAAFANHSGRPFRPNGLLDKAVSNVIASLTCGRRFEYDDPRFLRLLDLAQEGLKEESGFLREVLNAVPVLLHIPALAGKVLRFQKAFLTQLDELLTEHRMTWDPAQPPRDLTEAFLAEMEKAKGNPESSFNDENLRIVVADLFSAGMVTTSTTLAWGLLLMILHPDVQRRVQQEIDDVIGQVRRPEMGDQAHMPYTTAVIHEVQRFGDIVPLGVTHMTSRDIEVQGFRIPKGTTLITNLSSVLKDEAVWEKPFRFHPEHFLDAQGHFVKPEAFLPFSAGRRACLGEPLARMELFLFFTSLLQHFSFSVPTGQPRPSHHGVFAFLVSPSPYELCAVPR

| Efficacy [1] [%] | IC50 [2] [µM] | SMILES | further results |
| --- | --- | --- | --- |
| 1.3 | 0.175 | Cc1cc(O[C@H]2CO[C@H](C)C2)cc(C(=O)Nc2ccc(F)cn2)n1 | – |
| 1.6 | 0.182 | Cc1cc(OC2CCC2)cc(C(=O)Nc2ccc(F)cn2)n1 | – |
| 1.1 | 0.684 | Cc1cc(O[C@H]2CO[C@@H](C)C2)cc(C(=O)Nc2nc(C)cs2)n1 | – |
| 0.9 | 1.56 | Cc1cc(OC2CCOCC2)cc(C(=O)Nc2ccccn2)n1 | – |
| 2.1 | 0.182 | Cc1cc(OC2CCCC2)cc(C(=O)Nc2ccccn2)n1 | – |
| 3.8 | 1.29 | Cc1cc(O[C@H]2CO[C@H](C)C2)cc(C(=O)Nc2nc(C)c(F)s2)n1 | – |
| 0.8 | 0.725 | Cc1cc(OCC2CCCO2)cc(C(=O)Nc2ccccn2)n1 (stereo unspecified) | – |
| 1.7 | 0.038 | Cc1cc(O[C@@H]2CCOC2)cc(C(=O)Nc2ccc(F)cn2)n1 | Fu [3]: 0.07; INH (Cytochrome P450 1A2): > 30 µM; INH (Cytochrome P450 3A4): > 30 µM; INH (Cytochrome P450 2C9): > 30 µM; Vd [4]: 5.5 L/kg; half-life [5]: 46 min; Fu [6]: 0.26; INH (Cytochrome P450 2D6): > 30 µM; clearance [7]: 136 mL/min/kg |
| – | 0.077 | Cc1cc(OC2CCSC2)cc(C(=O)Nc2nc(C)cs2)n1 (stereo unspecified) | – |
| 10.4 | 3.35 | Cc1cc(OC2CCCCC2)cc(C(=O)Nc2ccc(F)cn2)n1 | – |
| – | 1.05 | CO[C@@H](C)COc1cc(C)nc(C(=O)Nc2nc(C)cs2)c1 | – |
| 0.7 | 0.224 | Cc1cc(OC2CCCOC2)cc(C(=O)Nc2ccccn2)n1 (stereo unspecified) | – |
| 2.1 | 0.112 | Cc1cc(O[C@@H]2CO[C@H](C)C2)cc(C(=O)Nc2nc(C)cs2)n1 | – |
| – | 0.388 | CC(=O)N1CC(Oc2cc(C)nc(C(=O)Nc3nc(C)cs3)c2)C1 | – |
| 0.8 | 0.392 | Cc1cc(OCC2COC2)cc(C(=O)Nc2ccccn2)n1 | – |
| – | 0.031 | Cc1cc(OC2CSC2)cc(C(=O)Nc2nc(C)cs2)n1 | – |
| 2.1 | 1.42 | Cc1cc(OC2CCCCC2)cc(C(=O)Nc2ccccn2)n1 | – |
| 1.7 | 0.023 | Cc1cc(O[C@@H]2CCOC2)cc(C(=O)Nc2ccccn2)n1 | – |
| 1.5 | 0.273 | Cc1cc(OCC2CCCO2)cc(C(=O)Nc2nc(C)cs2)n1 (stereo unspecified) | – |
| 1.6 | 0.902 | Cc1cc(O[C@H]2CO[C@H](C)C2)cc(C(=O)Nc2nc(C(F)F)cs2)n1 | – |
| 1.5 | 0.134 | Cc1cc(OCC2COC2)cc(C(=O)Nc2nc(C)cs2)n1 | – |

| Efficacy [1] [%] | IC50 [2] [µM] | SMILES | further results |
| --- | --- | --- | --- |
| -3.4 | 4.3 | Cc1cc(OCC2COC2)cc(C(=O)Nc2ccc(F)cn2)n1 | – |
| 1.1 | 0.21 | Cc1cc(OCC2CCOC2)cc(C(=O)Nc2ccccn2)n1 (stereo unspecified) | – |
| 1.5 | 0.149 | Cc1cc(OC2CCCC2)cc(C(=O)Nc2nc(C)cs2)n1 | – |
| 2.7 | 5.2 | Cc1cc(O[C@H]2CO[C@H](C)C2)cc(C(=O)Nc2nc(C(F)(F)F)cs2)n1 | – |
| 1.4 | 0.389 | Cc1cc(O[C@@H]2CO[C@H](C)C2)cc(C(=O)Nc2ccc(F)cn2)n1 | – |
| – | 0.504 | Cc1cc(OC2CN(S(C)(=O)=O)C2)cc(C(=O)Nc2nc(C)cs2)n1 | – |
| -1.1 | 2.48 | Cc1cc(OCC2CCO2)cc(C(=O)Nc2ccc(F)cn2)n1 (stereo unspecified) | – |
| 2.6 | 2.04 | Cc1cc(O[C@@H]2CO[C@@H](C)C2)cc(C(=O)Nc2ccc(F)cn2)n1 | – |
| -0.9 | 2.33 | Cc1cc(OCC2CCCO2)cc(C(=O)Nc2ccc(F)cn2)n1 (stereo unspecified) | – |
| 1 | 0.657 | Cc1cc(O[C@H]2CCOC2)cc(C(=O)Nc2ccc(F)cn2)n1 | – |
| 0.9 | 0.14 | Cc1cc(OC2CCCOC2)cc(C(=O)Nc2nc(C)cs2)n1 (stereo unspecified) | – |
| 1 | 0.7 | Cc1cc(OCC2CCOC2)cc(C(=O)Nc2ccc(F)cn2)n1 (stereo unspecified) | – |
| 1.3 | 0.028 | Cc1cc(O[C@@H]2CCOC2)cc(C(=O)Nc2nc(C)cs2)n1 | Fu [3]: 0.08; Drug metabolism [8]: Metabolite_Detected; INH (Cytochrome P450 1A2): 0.3 µM; INH (Cytochrome P450 3A4): 30 µM; Drug metabolism [9]: Metabolite_Detected; INH (Cytochrome P450 2C9): > 30 µM; Vd [4]: 2.7 L/kg; half-life [5]: 63 min; Drug metabolism [10]: Metabolite_Detected; fraction unbound [6]: 0.11; INH (Cytochrome P450 2D6): > 30 µM; clearance [7]: 34 mL/min/kg |
| 1.1 | 0.2 | Cc1cc(OCC2CCOC2)cc(C(=O)Nc2nc(C)cs2)n1 (stereo unspecified) | – |
| – | 0.392 | Cc1cc(OC2CS(=O)(=O)C2)cc(C(=O)Nc2nc(C)cs2)n1 | – |
| 1.5 | 0.058 | Cc1cc(OC2CCC2)cc(C(=O)Nc2nc(C)cs2)n1 | – |
| – | 0.145 | Cc1cc(OC2C[S+]([O-])C2)cc(C(=O)Nc2nc(C)cs2)n1 (stereo unspecified) | – |
| 1.3 | 0.066 | Cc1cc(OC2COC2)cc(C(=O)Nc2ccccn2)n1 | – |
| 1.9 | 2.1 | Cc1cc(OC2CCCCC2)cc(C(=O)Nc2nc(C)cs2)n1 | – |
| 0.2 | 0.497 | Cc1cc(OC2CCCOC2)cc(C(=O)Nc2ccc(F)cn2)n1 (stereo unspecified) | – |
| 1.9 | 0.103 | COCOc1cc(C)nc(C(=O)Nc2nc(C)cs2)c1 | – |

| Efficacy [1] [%] | IC50 [2] [µM] | SMILES | further results |
| --- | --- | --- | --- |
| 0.1 | 0.694 | COCOc1cc(C)nc(C(=O)Nc2ccc(F)cn2)c1 | – |
| 0.5 | 0.051 | Cc1cc(OC2COC2)cc(C(=O)Nc2nc(C)cs2)n1 | – |
| – | 1.03 | COC[C@@H](C)Oc1cc(C)nc(C(=O)Nc2nc(C)cs2)c1 | – |
| 1.2 | 0.399 | Cc1cc(OCC2CCO2)cc(C(=O)Nc2nc(C)cs2)n1 (stereo unspecified) | – |
| 1.5 | 0.043 | Cc1cc(OC2CCC2)cc(C(=O)Nc2ccccn2)n1 | – |
| 5.5 | 7.2 | COc1cc(C)nc(C(=O)Nc2ccc(F)cn2)c1 | – |
| 1.9 | 4.47 | Cc1cc(O[C@H]2CO[C@@H](C)C2)cc(C(=O)Nc2ccc(F)cn2)n1 | – |
| -0.2 | 1.96 | Cc1cc(OC2CCOCC2)cc(C(=O)Nc2ccc(F)cn2)n1 | – |
| -0.7 | 3.66 | Cc1cc(OC2CCCC2)cc(C(=O)Nc2ccc(F)cn2)n1 | – |
| 1.1 | 0.12 | COCOc1cc(C)nc(C(=O)Nc2ccccn2)c1 | – |
| 1.3 | 0.194 | Cc1cc(O[C@H]2CCOC2)cc(C(=O)Nc2ccccn2)n1 | – |
| 1.1 | 0.228 | Cc1cc(OC2COC2)cc(C(=O)Nc2ccc(F)cn2)n1 | Fu [3]: 0.16; INH (Cytochrome P450 1A2): 5.8 µM; INH (Cytochrome P450 3A4): > 30 µM; INH (Cytochrome P450 2C9): > 30 µM; Vd [4]: 4.5 L/kg; half-life [5]: 28 min; Fu [6]: 0.16; INH (Cytochrome P450 2D6): > 30 µM; clearance [7]: 179 mL/min/kg |
| 1.7 | 0.395 | Cc1cc(O[C@@H]2CO[C@@H](C)C2)cc(C(=O)Nc2nc(C)cs2)n1 | – |
| 0.5 | 0.646 | Cc1cc(OCC2CCO2)cc(C(=O)Nc2ccccn2)n1 (stereo unspecified) | – |
| 1.1 | 0.18 | Cc1cc(O[C@H]2CO[C@H](C)C2)cc(C(=O)Nc2nc(CF)cs2)n1 | – |
| 0.7 | 0.446 | Cc1cc(OC2CCOCC2)cc(C(=O)Nc2nc(C)cs2)n1 | – |
| 1.4 | 0.107 | Cc1cc(O[C@H]2CCOC2)cc(C(=O)Nc2nc(C)cs2)n1 | – |
| – | 0.932 | COC[C@H](C)Oc1cc(C)nc(C(=O)Nc2nc(C)cs2)c1 | – |
| – | 0.145 | CO[C@H](C)COc1cc(C)nc(C(=O)Nc2nc(C)cs2)c1 | Fu [3]: 0.07; Fu [6]: 0.09 |
| 1.2 | 0.081 | Cc1cc(O[C@H]2CO[C@H](C)C2)cc(C(=O)Nc2nc(C)cs2)n1 | fraction unbound [3]: 0.05; Kp [11]: 2.2; fraction unbound [6]: 0.1 |
| 1.3 | 0.899 | Cc1cc(O[C@H]2CO[C@H](C)C2)cc(C(=O)Nc2nc(C3CC3)cs2)n1 | – |
